Laboratory results: patent EP4745137A1 (Gluetacs Therapeutics (Shanghai) Co., Ltd., priority 2023, dated 2025)

Experiments:
GSPT1 = target: T1, GSPT1 (Homo sapiens, UniProt P15170+Q96SW2); test: Western-blot assay of substrate protein degradation in hPBMCs, GSPT1; format: cell-based; settings: 24 hours of compound treatment
T1 construct: endogenous in cells; host or cells: hPBMCs (Milecell Biotechnologies)

[1] = target: T2, human Cereblon WT GST-tagged protein (Homo sapiens, UniProt Q96SW2); test: CRBN-binding affinity by HTRF (CEREBLON BINDING kit); settings: HTRF inhibitory activity, CEREBLON BINDING kit; read-out: HTRF IC50
T2 construct: purchased CISBIO 64BDCRBNPEH
T2 sequence (Q96SW2 whole entry): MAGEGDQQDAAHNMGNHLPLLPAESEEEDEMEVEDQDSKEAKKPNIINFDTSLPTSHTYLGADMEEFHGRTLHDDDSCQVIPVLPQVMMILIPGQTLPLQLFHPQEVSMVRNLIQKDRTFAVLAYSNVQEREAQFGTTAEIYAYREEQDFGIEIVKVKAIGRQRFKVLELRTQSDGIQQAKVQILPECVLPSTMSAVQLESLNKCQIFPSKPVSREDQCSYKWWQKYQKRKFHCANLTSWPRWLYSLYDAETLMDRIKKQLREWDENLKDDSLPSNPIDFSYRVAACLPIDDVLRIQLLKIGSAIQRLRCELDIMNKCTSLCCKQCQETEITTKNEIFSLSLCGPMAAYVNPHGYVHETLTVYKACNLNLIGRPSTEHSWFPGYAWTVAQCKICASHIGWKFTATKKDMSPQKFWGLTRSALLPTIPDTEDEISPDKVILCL

IKZF1 = target: T3, IKZF1 (Homo sapiens, UniProt Q13422+Q96SW2); test: Western-blot assay of substrate protein degradation in hPBMCs, IKZF1; format: cell-based; settings: 24 hours of compound treatment
T3 construct: endogenous in cells; host or cells: hPBMCs (Milecell Biotechnologies)

MM.1S = test: Tumor cell proliferation inhibition (CellTiter-Meiluncell Luminescent Cell Viability Assay), MM.1S; settings: Homo sapiens, MM1.S, read-out: inhibitory activity (IC50, nM) against tumor cells proliferation, MM.1S
Description: (§1) The tumor cells used herein were cultured in a cell culture medium listed in table 2 at 37°C in an incubator with 5% CO2. Prior to experimentation, all cell lines used were correctly identified by STR profiling, and tested negative for mycoplasma contamination using a mycoplasma detection kit through routine screenings.
On the following day, the test compounds of the present disclosure were subjected to serial dilution. […] Subsequently, 0.5 µL of the test compound dilution was transferred into the 96-well plate containing the cells, with each well containing 100 µL of cell culture medium. […] Into the 96-well plate, the diluted test compounds and corresponding detection reagents were added, resulting in final test compound concentrations of 500 nM and 10 nM, respectively.
(§2) After the cells were treated with the compounds of the present disclosure for a specified period (the treatment durations were shown in Table 3), the cell viability assay reagent was added to the culture medium according to the kit's instructions to determine cell viability. […] All controls were treated using the same procedure as the compounds of the present disclosure. The growth inhibition curves for the compounds of the present disclosure were plotted using Prism GraphPad software, and the IC50 values were calculated therefrom.

IKZF3 = target: T4, IKZF3 (Homo sapiens, UniProt Q96SW2+Q9UKT9); test: Western-blot assay of substrate protein degradation in hPBMCs, IKZF3; format: cell-based; settings: 24 hours of compound treatment
T4 construct: endogenous in cells; host or cells: hPBMCs (Milecell Biotechnologies)
T4 sequence (Q9UKT9 whole entry): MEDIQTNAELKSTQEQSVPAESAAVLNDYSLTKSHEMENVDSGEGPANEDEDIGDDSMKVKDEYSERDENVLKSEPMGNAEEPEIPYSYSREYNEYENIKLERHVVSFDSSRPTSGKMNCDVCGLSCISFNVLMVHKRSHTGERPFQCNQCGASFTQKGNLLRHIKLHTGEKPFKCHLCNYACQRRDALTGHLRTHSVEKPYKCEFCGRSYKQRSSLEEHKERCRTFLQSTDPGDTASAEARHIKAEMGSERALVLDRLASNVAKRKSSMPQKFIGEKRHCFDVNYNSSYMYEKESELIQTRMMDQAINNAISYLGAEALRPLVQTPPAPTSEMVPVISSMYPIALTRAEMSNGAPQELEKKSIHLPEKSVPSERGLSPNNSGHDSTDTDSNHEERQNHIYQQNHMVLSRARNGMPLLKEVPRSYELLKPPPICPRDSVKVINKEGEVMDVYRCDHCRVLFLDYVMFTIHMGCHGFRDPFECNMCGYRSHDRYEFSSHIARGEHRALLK
T4 sequence (Q96SW2 whole entry): as the sequence (Q96SW2 whole entry) above
T4 sequence (Q16531 whole entry partner): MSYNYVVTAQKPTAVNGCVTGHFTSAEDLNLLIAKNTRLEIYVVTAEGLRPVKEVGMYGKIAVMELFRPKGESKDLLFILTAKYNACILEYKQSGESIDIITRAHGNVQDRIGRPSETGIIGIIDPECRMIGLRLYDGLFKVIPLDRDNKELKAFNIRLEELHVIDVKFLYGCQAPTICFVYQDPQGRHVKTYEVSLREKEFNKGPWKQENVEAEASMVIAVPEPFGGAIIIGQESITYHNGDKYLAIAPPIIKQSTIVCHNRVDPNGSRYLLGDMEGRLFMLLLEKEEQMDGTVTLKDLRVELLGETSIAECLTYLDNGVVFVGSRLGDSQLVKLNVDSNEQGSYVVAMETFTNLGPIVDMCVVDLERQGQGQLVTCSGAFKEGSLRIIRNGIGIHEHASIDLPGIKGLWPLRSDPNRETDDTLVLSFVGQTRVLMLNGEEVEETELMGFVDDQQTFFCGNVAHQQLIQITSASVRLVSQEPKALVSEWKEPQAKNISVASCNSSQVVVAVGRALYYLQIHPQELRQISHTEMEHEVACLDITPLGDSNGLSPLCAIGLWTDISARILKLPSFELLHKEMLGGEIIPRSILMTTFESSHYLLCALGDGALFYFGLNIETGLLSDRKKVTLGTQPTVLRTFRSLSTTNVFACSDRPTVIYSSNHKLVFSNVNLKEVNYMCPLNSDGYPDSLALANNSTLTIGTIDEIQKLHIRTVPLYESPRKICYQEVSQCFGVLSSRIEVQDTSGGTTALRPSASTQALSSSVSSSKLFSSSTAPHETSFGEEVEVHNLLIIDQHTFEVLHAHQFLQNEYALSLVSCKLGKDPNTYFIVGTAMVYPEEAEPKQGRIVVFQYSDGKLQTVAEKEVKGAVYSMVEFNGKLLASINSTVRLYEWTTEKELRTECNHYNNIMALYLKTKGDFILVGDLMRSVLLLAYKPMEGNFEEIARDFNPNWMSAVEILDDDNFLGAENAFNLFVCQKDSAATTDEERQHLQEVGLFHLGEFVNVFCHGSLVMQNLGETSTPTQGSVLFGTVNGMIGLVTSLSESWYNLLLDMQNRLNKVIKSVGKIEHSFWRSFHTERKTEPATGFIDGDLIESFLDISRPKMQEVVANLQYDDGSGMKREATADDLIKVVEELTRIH

WEE1 = target: T5, WEE1 (Homo sapiens, UniProt P30291+Q96SW2); test: Western-blot assay of substrate protein degradation in hPBMCs, WEE1; format: cell-based; settings: 24 hours of compound treatment
T5 construct: endogenous in cells; host or cells: hPBMCs (Milecell Biotechnologies)
T5 sequence (P30291 whole entry): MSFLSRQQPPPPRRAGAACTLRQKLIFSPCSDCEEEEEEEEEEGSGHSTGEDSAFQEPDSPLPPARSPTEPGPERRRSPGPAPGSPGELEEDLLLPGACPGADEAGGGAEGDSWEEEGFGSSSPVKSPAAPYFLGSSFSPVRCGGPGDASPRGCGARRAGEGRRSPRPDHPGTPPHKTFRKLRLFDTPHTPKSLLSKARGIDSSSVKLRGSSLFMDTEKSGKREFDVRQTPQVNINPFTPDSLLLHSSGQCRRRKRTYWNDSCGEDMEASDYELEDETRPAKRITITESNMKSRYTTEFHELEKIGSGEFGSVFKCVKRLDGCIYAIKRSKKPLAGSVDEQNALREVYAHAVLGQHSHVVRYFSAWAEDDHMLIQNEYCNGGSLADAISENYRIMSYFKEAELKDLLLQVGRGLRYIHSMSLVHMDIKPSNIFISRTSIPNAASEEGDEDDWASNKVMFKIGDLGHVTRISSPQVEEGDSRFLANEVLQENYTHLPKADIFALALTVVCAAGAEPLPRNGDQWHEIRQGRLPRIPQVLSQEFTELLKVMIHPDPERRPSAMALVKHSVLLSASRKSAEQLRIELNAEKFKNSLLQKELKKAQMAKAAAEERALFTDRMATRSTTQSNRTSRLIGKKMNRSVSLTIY
T5 sequence (Q96SW2 whole entry): as the sequence (Q96SW2 whole entry) above
T5 sequence (Q16531 whole entry partner): as the sequence (Q16531 whole entry partner) above

IKZF2 = target: T6, IKZF2 (Homo sapiens, UniProt Q96SW2+Q9UKS7); test: Western-blot assay of substrate protein degradation in hPBMCs, IKZF2; format: cell-based; settings: 24 hours of compound treatment
T6 construct: endogenous in cells; host or cells: hPBMCs (Milecell Biotechnologies)
T6 sequence (Q9UKS7 whole entry): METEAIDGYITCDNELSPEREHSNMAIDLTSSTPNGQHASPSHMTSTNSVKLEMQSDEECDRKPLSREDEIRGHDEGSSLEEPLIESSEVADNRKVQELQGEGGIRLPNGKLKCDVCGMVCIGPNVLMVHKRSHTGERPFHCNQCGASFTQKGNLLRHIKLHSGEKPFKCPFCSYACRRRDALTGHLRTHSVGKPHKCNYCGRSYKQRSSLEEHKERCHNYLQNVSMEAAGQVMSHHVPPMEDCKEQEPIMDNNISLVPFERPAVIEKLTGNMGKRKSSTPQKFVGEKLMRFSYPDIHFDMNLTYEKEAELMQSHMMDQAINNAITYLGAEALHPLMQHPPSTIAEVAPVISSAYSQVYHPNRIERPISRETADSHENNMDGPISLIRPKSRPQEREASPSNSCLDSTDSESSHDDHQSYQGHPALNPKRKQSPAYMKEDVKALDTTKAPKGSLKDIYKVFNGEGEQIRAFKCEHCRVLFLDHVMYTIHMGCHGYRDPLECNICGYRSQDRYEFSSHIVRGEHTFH
T6 sequence (Q96SW2 whole entry): as the sequence (Q96SW2 whole entry) above
T6 sequence (Q16531 whole entry partner): as the sequence (Q16531 whole entry partner) above

CK1α = target: T7, CK1α (Homo sapiens, UniProt P48729+Q96SW2); test: Western-blot assay of substrate protein degradation in hPBMCs, CK1α; format: cell-based; settings: 24 hours of compound treatment
T7 construct: endogenous in cells; host or cells: hPBMCs (Milecell Biotechnologies)
T7 sequence (P48729 whole entry): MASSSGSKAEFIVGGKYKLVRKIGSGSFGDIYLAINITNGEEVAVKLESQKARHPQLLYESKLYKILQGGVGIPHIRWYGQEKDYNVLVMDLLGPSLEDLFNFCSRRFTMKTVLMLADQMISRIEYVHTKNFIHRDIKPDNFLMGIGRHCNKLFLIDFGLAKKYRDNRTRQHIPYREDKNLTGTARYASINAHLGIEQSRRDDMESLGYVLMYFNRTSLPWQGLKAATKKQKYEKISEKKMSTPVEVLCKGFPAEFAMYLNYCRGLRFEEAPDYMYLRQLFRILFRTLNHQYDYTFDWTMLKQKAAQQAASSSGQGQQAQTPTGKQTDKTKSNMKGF
T7 sequence (Q96SW2 whole entry): as the sequence (Q96SW2 whole entry) above
T7 sequence (Q16531 whole entry partner): as the sequence (Q16531 whole entry partner) above

CCRF-CEM = test: Tumor cell proliferation inhibition (CellTiter-Meiluncell Luminescent Cell Viability Assay), CCRF-CEM; settings: Homo sapiens, read-out: inhibitory activity (IC50, nM) against tumor cells proliferation, CCRF-CEM
MV-4-11 = test: Tumor cell proliferation inhibition (CellTiter-Meiluncell Luminescent Cell Viability Assay), MV-4-11; settings: Homo sapiens, MV4-11, read-out: inhibitory activity (IC50, nM) against tumor cells proliferation, MV-4-11
Jurkat = test: Tumor cell proliferation inhibition (CellTiter-Meiluncell Luminescent Cell Viability Assay), Jurkat; settings: Homo sapiens, read-out: inhibitory activity (IC50, nM) against tumor cells proliferation, Jurkat
[2] = system: Human acute T lymphocytic leukemia cells (Molt-4); test: Tumor cell proliferation inhibition (CellTiter-Meiluncell Luminescent Cell Viability Assay), Molt-4; settings: MOLT-4, read-out: inhibitory activity (IC50, nM) against tumor cells proliferation, Molt-4
Description: as §1
On the following day, the test compounds of the present disclosure were subjected to serial dilution. […] Subsequently, 0.5 µL of the test compound dilution was transferred into the 96-well plate containing the cells, with each well containing 100 µL of cell culture medium. […] Into the 96-well plate, the diluted test compounds and corresponding detection reagents were added, resulting in final test compound concentrations of 500 nM and 10 nM, respectively. The experimental procedure is described below using the diluted 2 µM test compound as an example.
as §2

[3] = compounds tested at 50 nM and 500 nM (concentration of the table not stated)
[4] = 50 nM and 500 nM tested (concentration behind the class not stated)

T1 sequence (P15170 whole entry): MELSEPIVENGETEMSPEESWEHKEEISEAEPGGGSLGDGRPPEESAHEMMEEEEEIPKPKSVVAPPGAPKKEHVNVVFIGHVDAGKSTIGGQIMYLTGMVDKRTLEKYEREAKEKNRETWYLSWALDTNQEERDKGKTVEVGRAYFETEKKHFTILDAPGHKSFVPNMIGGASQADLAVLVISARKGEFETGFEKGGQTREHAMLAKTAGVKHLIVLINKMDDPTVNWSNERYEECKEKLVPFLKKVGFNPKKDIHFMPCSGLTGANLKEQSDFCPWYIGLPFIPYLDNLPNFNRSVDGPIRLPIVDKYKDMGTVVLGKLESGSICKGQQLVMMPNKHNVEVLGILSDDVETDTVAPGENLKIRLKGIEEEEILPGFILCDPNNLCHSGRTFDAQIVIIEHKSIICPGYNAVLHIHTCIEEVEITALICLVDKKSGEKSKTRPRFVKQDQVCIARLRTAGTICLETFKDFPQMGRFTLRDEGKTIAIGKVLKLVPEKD
T1 sequence (Q96SW2 whole entry): as the sequence (Q96SW2 whole entry) above
T1 sequence (Q16531 whole entry partner): as the sequence (Q16531 whole entry partner) above

SMILES | IC50 [1] [nM] | IC50 (MM.1S) [nM] | GSPT1 substrate protein remaining % (GSPT1; [3]) | IKZF 1 substrate protein remaining % (IKZF1; [3]) | IKZF3 substrate protein remaining % (IKZF3; [3]) | Weel substrate protein remaining % (WEE1; [3]) | IKZF2 substrate protein remaining % (IKZF2; [3]) | CK1a substrate protein remaining % (CK1α; [3]) | GSPT1 substrate protein remaining % (GSPT1; [4]) | IC50 (CCRF-CEM) [nM] | IKZF 1 substrate protein remaining % (IKZF1; [4]) | IC50 (MV-4-11) [nM] | IC50 (Jurkat) [nM] | IC50 [2] [nM] | IKZF3 substrate protein remaining % (IKZF3; [4]) | Weel substrate protein remaining % (WEE1; [4]) | IKZF2 substrate protein remaining % (IKZF2; [4]) | CK1a substrate protein remaining % (CK1α; [4])
O=C1CCC(N2Cc3cc(CN4CCCN(c5cccc(Cl)c5Cl)CC4)ccc3C2=O)C(=O)N1 (centres unmarked) [GT-04856, 3-(5-((4-(2,3-dichlorophenyl)-1,4-diazepan-1-yl)methyl)-1-oxoisoindolin-2-yl)piperidine-2,6-dione] | 500 to 1000 | 10 to 50 | A (0% ≤ substrate protein remaining % ≤ 80%) | A (0% ≤ substrate protein remaining % ≤ 80%) | A (0% ≤ substrate protein remaining % ≤ 80%) | A (0% ≤ substrate protein remaining % ≤ 80%) | A (0% ≤ substrate protein remaining % ≤ 80%) | B (80%< substrate protein remaining %≤ 100%) |  |  |  |  |  |  |  |  |  | 
O=C1CCC(N2Cc3cc(CN4CCC(N5CCOc6cc(F)ccc65)CC4)ccc3C2=O)C(=O)N1 (centres unmarked) [GT-04859, 3-(5-((4-(7-fluoro-2,3-dihydro-4H-benzo[b][1,4]oxazin-4-yl)piperidin-1-yl)methyl)-1-oxoisoindolin-2-yl)piperidine-2,6-dione] | < 500 | 50 to 100 | A (0% ≤ substrate protein remaining % ≤ 80%) | A (0% ≤ substrate protein remaining % ≤ 80%) | A (0% ≤ substrate protein remaining % ≤ 80%) | B (80%< substrate protein remaining %≤ 100%) | A (0% ≤ substrate protein remaining % ≤ 80%) | B (80%< substrate protein remaining %≤ 100%) |  |  |  |  |  |  |  |  |  | 
O=C1CCC(N2Cc3cc(CN4CC5CCC4CN5c4cccc(Cl)c4Cl)ccc3C2=O)C(=O)N1 (centres unmarked) [GT-04930, 3-(5-((5-(2,3-dichlorophenyl)-2,5-diazabicyclo[2.2.2]octan-2-yl)methyl)-1-oxoisoindolin-2-yl)piperidine-2,6-dione] | < 500 | 10 to 50 | A (0% ≤ substrate protein remaining % ≤ 80%) | A (0% ≤ substrate protein remaining % ≤ 80%) | A (0% ≤ substrate protein remaining % ≤ 80%) | A (0% ≤ substrate protein remaining % ≤ 80%) | A (0% ≤ substrate protein remaining % ≤ 80%) | B (80%< substrate protein remaining %≤ 100%) |  |  |  |  |  |  |  |  |  | 
Cc1nc(C2=CCN(Cc3ccc4c(c3)CN(C3CCC(=O)NC3=O)C4=O)CC2)c2c3c(sc2n1)CCC3 (centres unmarked) [GT-05211, 3-(5-((4-(2-methyl-6,7-dihydro-5H-cyclopenta[4,5]thieno[2,3-d]pyrimidin-4-yl)-3,6-dihydropyridin-1(2H)-yl)methyl)-1-oxoisoindolin-2-yl)piperidine-2,6-dione] | < 500 | 50 to 100 | A (0% ≤ substrate protein remaining % ≤ 80%) | A (0% ≤ substrate protein remaining % ≤ 80%) | A (0% ≤ substrate protein remaining % ≤ 80%) | A (0% ≤ substrate protein remaining % ≤ 80%) | A (0% ≤ substrate protein remaining % ≤ 80%) | A (0% ≤ substrate protein remaining % ≤ 80%) |  |  |  |  |  |  |  |  |  | 
O=C1CCC(N2C(=O)c3ccc(CN4CC=C(c5cncc(Cl)c5Cl)CC4)cc3C2=O)C(=O)N1 (centres unmarked) [GT-06609, 5-((4,5-dichloro-3',6'-dihydro-[3,4'-bipyridin]-1'(2'H)-yl)methyl)-2-(2,6-dioxopiperidin-3-yl)isoindoline-1,3-dione] | 500 to 1000 |  |  |  |  |  |  |  | A (0% ≤ substrate protein remaining % ≤ 80%) | 100 to 500 | A (0% ≤ substrate protein remaining % ≤ 80%) | 100 to 500 | 100 to 500 | 100 to 500 | A (0% ≤ substrate protein remaining % ≤ 80%) | A (0% ≤ substrate protein remaining % ≤ 80%) | A (0% ≤ substrate protein remaining % ≤ 80%) | B (80%< substrate protein remaining %≤ 100%)

Further lines, with some results ahead:

IC50 [1] [nM] | IC50 (MM.1S) [nM] | SMILES | GSPT1 substrate protein remaining % (GSPT1; [3]) | IKZF 1 substrate protein remaining % (IKZF1; [3]) | IKZF3 substrate protein remaining % (IKZF3; [3]) | Weel substrate protein remaining % (WEE1; [3]) | IKZF2 substrate protein remaining % (IKZF2; [3]) | CK1a substrate protein remaining % (CK1α; [3]) | GSPT1 substrate protein remaining % (GSPT1; [4]) | IC50 (CCRF-CEM) [nM] | IKZF 1 substrate protein remaining % (IKZF1; [4]) | IC50 (MV-4-11) [nM] | IC50 (Jurkat) [nM] | IC50 [2] [nM] | IKZF3 substrate protein remaining % (IKZF3; [4]) | Weel substrate protein remaining % (WEE1; [4]) | IKZF2 substrate protein remaining % (IKZF2; [4]) | CK1a substrate protein remaining % (CK1α; [4])
< 500 | 10 to 50 | Cc1nc(C2=CCN(Cc3ccc4c(c3)CN(C3CCC(=O)NC3=O)C4=O)CC2)c2c3c(sc2n1)CCCC3 (centres unmarked) [GT-04863, 3-(5-((4-(2-methyl-5,6,7,8-tetrahydrobenzo[4,5]thieno[2,3-d]pyrimidin-4-yl)-3,6-dihydropyridin-1 (2H)-yl)methyl)-1-oxoisoindolin-2-yl)piperidine-2,6-dione] | A (0% ≤ substrate protein remaining % ≤ 80%) | A (0% ≤ substrate protein remaining % ≤ 80%) | A (0% ≤ substrate protein remaining % ≤ 80%) | A (0% ≤ substrate protein remaining % ≤ 80%) | A (0% ≤ substrate protein remaining % ≤ 80%) | A (0% ≤ substrate protein remaining % ≤ 80%) |  |  |  |  |  |  |  |  |  | 
< 500 | 5 to 10 | O=C1CCC(N2Cc3cc(CN4C[C@@H]5C[C@H]4CN5c4cccc(Cl)c4Cl)ccc3C2=O)C(=O)N1 (stereo partly drawn) [GT-04898, 3-(5-(((1S,4S)-5-(2,3-dichlorophenyl)-2,5-diazabicyclo[2.2.1]heptan-2-yl)methyl)-1-oxoisoindolin-2-yl)piperidine-2,6-dione] | A (0% ≤ substrate protein remaining % ≤ 80%) | A (0% ≤ substrate protein remaining % ≤ 80%) | A (0% ≤ substrate protein remaining % ≤ 80%) | B (80%< substrate protein remaining %≤ 100%) | A (0% ≤ substrate protein remaining % ≤ 80%) | B (80%< substrate protein remaining %≤ 100%) |  |  |  |  |  |  |  |  |  | 
< 500 | 10 to 50 | Cc1nc(N2CCN(Cc3ccc4c(c3)CN(C3CCC(=O)NC3=O)C4=O)CC2)c2c3c(sc2n1)CCCC3 (centres unmarked) [GT-04900, 3-(5-((4-(2-methyl-5,6,7,8-tetrahydrobenzo[4,5]thieno[2,3-d]pyrimidin-4-yl)piperazin-1-yl)methyl)-1-oxoisoindolin-2-yl)piperidine-2,6-dione] | B (80%< substrate protein remaining %≤ 100%) | A (0% ≤ substrate protein remaining % ≤ 80%) | A (0% ≤ substrate protein remaining % ≤ 80%) | B (80%< substrate protein remaining %≤ 100%) | A (0% ≤ substrate protein remaining % ≤ 80%) | A (0% ≤ substrate protein remaining % ≤ 80%) |  |  |  |  |  |  |  |  |  | 
< 500 | 10 to 50 | O=C1CCC(N2Cc3cc(CN4CCC(C5CCOc6cc(F)ccc65)CC4)ccc3C2=O)C(=O)N1 (centres unmarked) [GT-04901, 3-(5-((4-(7-fluorochroman-4-yl)piperidin-1-yl)methyl)-1-oxoisoindolin-2-yl)piperidine-2,6-dione] | B (80%< substrate protein remaining %≤ 100%) | A (0% ≤ substrate protein remaining % ≤ 80%) | A (0% ≤ substrate protein remaining % ≤ 80%) | B (80%< substrate protein remaining %≤ 100%) | A (0% ≤ substrate protein remaining % ≤ 80%) | B (80%< substrate protein remaining %≤ 100%) |  |  |  |  |  |  |  |  |  | 
< 500 | 10 to 50 | O=C1CCC(N2Cc3cc(CN4CCN(c5nc(N6CCOCC6)nc6ccsc56)CC4)ccc3C2=O)C(=O)N1 (centres unmarked) [GT-04903, 3-(5-((4-(2-morpholinothieno[3,2-d]pyrimidin-4-yl)piperazin-1-yl)methyl)-1-oxoisoindolin-2-yl)piperidine-2,6-dione] | A (0% ≤ substrate protein remaining % ≤ 80%) | B (80%< substrate protein remaining %≤ 100%) | A (0% ≤ substrate protein remaining % ≤ 80%) | B (80%< substrate protein remaining %≤ 100%) | A (0% ≤ substrate protein remaining % ≤ 80%) | A (0% ≤ substrate protein remaining % ≤ 80%) |  |  |  |  |  |  |  |  |  | 
